Holding throughout (type): cell-based
Test [1] concerns the target T1, hGIPR (Homo sapiens, UniProt P48546).
T1 sequence (P48546 22-466): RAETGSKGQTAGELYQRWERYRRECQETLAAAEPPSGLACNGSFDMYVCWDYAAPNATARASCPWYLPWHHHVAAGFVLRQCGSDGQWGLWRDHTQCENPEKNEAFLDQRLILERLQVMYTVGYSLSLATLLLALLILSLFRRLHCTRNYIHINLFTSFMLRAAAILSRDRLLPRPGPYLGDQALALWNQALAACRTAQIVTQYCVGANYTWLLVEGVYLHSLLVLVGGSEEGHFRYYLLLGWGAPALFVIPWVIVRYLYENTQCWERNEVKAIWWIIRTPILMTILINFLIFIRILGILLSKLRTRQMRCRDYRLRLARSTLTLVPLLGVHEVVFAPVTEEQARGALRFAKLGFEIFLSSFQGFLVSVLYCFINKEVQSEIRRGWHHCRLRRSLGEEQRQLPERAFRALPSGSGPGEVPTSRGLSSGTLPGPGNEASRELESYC
Description: Functional cAMP activity in the presence of 1% HSA. As to conditions: read-out: cAMP Rel EC50, hGIPR.

In test [2] the target is T2, hGLP-1R (Homo sapiens, UniProt P43220). Description: Functional cAMP activity in the presence of 1% HSA. As to conditions: read-out: cAMP Rel EC50, hGLP-1R.
T2 sequence (P43220 24-463): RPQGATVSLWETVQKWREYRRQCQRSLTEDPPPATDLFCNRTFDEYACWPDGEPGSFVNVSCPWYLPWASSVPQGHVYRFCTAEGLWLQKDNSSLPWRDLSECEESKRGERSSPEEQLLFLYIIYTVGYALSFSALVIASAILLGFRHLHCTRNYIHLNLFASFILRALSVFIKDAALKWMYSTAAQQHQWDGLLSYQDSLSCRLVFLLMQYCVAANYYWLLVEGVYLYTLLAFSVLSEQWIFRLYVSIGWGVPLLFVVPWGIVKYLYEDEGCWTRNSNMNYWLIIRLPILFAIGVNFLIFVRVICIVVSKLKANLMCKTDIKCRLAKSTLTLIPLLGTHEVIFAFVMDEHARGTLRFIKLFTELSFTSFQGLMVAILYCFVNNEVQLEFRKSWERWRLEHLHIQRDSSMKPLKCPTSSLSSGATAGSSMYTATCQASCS
Test [3] has as its target hGcgR (Homo sapiens, UniProt P47871). Description: Functional cAMP activation in the presence of 0.1% casein (no HSA). As to conditions: read-out: Relative cAMP EC50, hGcgR.
Test [4] addresses T2, hGLP-1R. The description is as above. As to conditions: read-out: Relative cAMP EC50, hGLP-1R.
The target of test [5] is human GcgR (Homo sapiens, UniProt P47871). Description: Functional cAMP activity in the presence of 1% HSA. As to conditions: read-out: cAMP Rel EC50, hGcgR.
Chain of human GcgR (P47871 26-477): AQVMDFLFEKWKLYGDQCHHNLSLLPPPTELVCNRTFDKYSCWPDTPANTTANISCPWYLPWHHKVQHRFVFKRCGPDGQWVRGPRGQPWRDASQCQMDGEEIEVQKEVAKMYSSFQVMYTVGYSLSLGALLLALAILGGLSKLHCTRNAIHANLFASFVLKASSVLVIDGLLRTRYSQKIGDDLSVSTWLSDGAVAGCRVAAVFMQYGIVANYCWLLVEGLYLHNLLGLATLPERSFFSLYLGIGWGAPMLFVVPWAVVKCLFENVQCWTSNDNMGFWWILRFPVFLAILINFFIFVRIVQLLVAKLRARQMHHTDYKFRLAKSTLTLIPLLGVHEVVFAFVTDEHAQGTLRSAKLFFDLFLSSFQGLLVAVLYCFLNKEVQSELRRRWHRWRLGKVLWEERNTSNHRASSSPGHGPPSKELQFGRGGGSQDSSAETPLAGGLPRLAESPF
In test [6] the target is T1, hGIPR. In words: Functional cAMP activation in the presence of 0.1% casein (no HSA). As to conditions: read-out: Relative cAMP EC50, hGIPR.
[7] abbreviates: in the presence of 0.1% casein (no HSA), geometric mean.

Read-outs that look alike come from different tables or passages of the source. Starred links: 1 amine or outer side, 2 acyl side, 3 side chain; linkers in the order of their positions; H or OH if unused. Non-standard residues stand in square brackets, D forms with d. Groups on a side chain read outwards from the residue. *: point of attachment. C18 diacid = O=C(O)CCCCCCCCCCCCCCCCC(=O)*; αMePhe(2-F) = C[C@](N)(Cc1ccccc1F)C(=O)O; γGlu = O=C(O)[C@H](CCC(=O)[*:2])N[*:1]; αMe4Pal = C[C@](N)(Cc1ccncc1)C(=O)O; αMeY = C[C@](N)(Cc1ccc(O)cc1)C(=O)O; 4Pal = N[C@@H](Cc1ccncc1)C(=O)O; αMeL = CC(C)C[C@](C)(N)C(=O)O; αMeS = C[C@](N)(CO)C(=O)O; Orn = NCCC[C@H](N)C(=O)O; AEEA = NCCOCCOCC(=O)O; Aib = CC(C)(N)C(=O)O
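For Relative cAMP EC50, hGIPR in this document: intracellular cAMP rise after 30 min at 37 °C read by HTRF against a standard curve, scaled between buffer alone (0%) and top control ligand concentration (100%), four-parameter fit.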
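For Relative cAMP EC50, hGLP-1R in this document: intracellular cAMP rise after 30 min at 37 °C read by HTRF, normalized between buffer only (0%) and maximal control ligand (100%), four-parameter variable-slope fit.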
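For Relative cAMP EC50, hGcgR in this document: intracellular cAMP rise after 30 min at 37 °C, read by HTRF against a cAMP standard curve, scaled from buffer only (0%) to maximal control ligand response (100%).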

Chain of hGcgR (P47871 26-477): as above

As to “H-Y[Aib]QGT[αMePhe(2-F)]TSD[4Pal][αMeS]I[αMeL]LD[Orn]K([AEEA-γGlu-C18 diacid])AQ[αMe4Pal]EFI[dE][αMeY]LVEGGPSSGAPPPGGE-NH2 [Example 1154]”, the EC50 (commonly the midpoint of the concentration-response curve) came out at 0.954 nM in test [1]; 44.5 nM in test [2]; 6.42 nM in test [3] (setting [7]); 0.344 nM in test [4] (setting [7]); 320 nM in test [5]; 0.00879 nM in test [6] (setting [7]).
As to “H-Y[Aib]QGT[αMePhe(2-F)]TSD[4Pal][αMeS]I[αMeL]LD[Orn]K([AEEA-γGlu-C18 diacid])AQ[αMe4Pal]EFI[dE][αMeY]LVEGGPSSGAPPPSGE-NH2 [Example 749]”, the EC50 in test [1] turned out to be 1.47 nM; in test [2] it was 33.9 nM; in test [3], 2.21 nM; in test [4], 0.293 nM; in test [5], 28 nM; in test [6], 0.00718 nM.
On to “H-Y[Aib]QGT[αMePhe(2-F)]TSD[4Pal][αMeS]I[αMeL]LD[Orn]K([AEEA-γGlu-C18 diacid])AQ[αMe4Pal]EFI[dE][αMeY]LVEGGPSSGAPPPSGSE-NH2 [Example 751]”, for which the EC50 in test [1] worked out at 1.27 nM; in test [2], 32.3 nM; in test [3] it was 1.9 nM; in test [4] it was 0.302 nM; in test [5] it was 267 nM; in test [6] it was 0.00759 nM.
For “H-Y[Aib]QGT[αMePhe(2-F)]TSD[4Pal][αMeS]I[αMeL]LD[Orn]K([AEEA-γGlu-C18 diacid])AQ[αMe4Pal]EFI[dE][αMeY]LVEGGPSSGAPPPTGE-NH2 [Example 1152]”, the EC50 is 1.21 nM in test [1]; 43.8 nM in test [2]; 2.32 nM in test [3] (setting [7]); 0.371 nM in test [4] (setting [7]); 287 nM in test [5]; 0.0101 nM in test [6] (setting [7]).
Take “H-Y[Aib]QGT[αMePhe(2-F)]TSD[4Pal][αMeS]I[αMeL]LD[Orn]K([AEEA-γGlu-C18 diacid])AQ[αMe4Pal]EFI[dE][αMeY]LVEGGPSSGEPPPEGE-NH2 [Example 1159]”: the EC50 in test [1] worked out at 1.29 nM; in test [2] it was 64.1 nM; in test [3] (setting [7]), 1.86 nM; in test [4] (setting [7]), 0.45 nM; in test [5] it was 238 nM; in test [6] (setting [7]) it was 0.0118 nM.
As for “H-Y[Aib]QGT[αMePhe(2-F)]TSD[4Pal][αMeS]I[αMeL]LD[Orn]K([AEEA-γGlu-C18 diacid])AQ[αMe4Pal]EFI[dE][αMeY]LVEGGPSSGEPPPESE-NH2 [Example 1157]”, the EC50 amounted to 1.28 nM in test [1]; 57.5 nM in test [2]; 2.04 nM in test [3] (setting [7]); 0.408 nM in test [4] (setting [7]); 384 nM in test [5]; 0.0124 nM in test [6] (setting [7]).
On to “H-Y[Aib]QGT[αMePhe(2-F)]TSD[4Pal][αMeS]I[αMeL]LD[Orn]K([AEEA-γGlu-C18 diacid])AQ[αMe4Pal]EFI[dE][αMeY]LVEGGPSSGEPPPGGE-NH2 [Example 1155]”, for which the EC50 in test [1] worked out at 0.888 nM; in test [2], 44.4 nM; in test [3] (setting [7]), 1.83 nM; in test [4] (setting [7]), 0.434 nM; in test [5], 288 nM; in test [6] (setting [7]) it was 0.00917 nM.
“H-Y[Aib]QGT[αMePhe(2-F)]TSD[4Pal][αMeS]I[αMeL]LD[Orn]K([AEEA-γGlu-C18 diacid])AQ[αMe4Pal]EFI[dE][αMeY]LVEGGPSSGEPPPSGE-NH2 [Example 750]”: the EC50 in test [1] amounted to 1.34 nM; in test [2] it was 39.1 nM; in test [3], 2 nM; in test [4], 0.302 nM; in test [5], 205 nM; in test [6] it was 0.00784 nM.
For the substance “H-Y[Aib]QGT[αMePhe(2-F)]TSD[4Pal][αMeS]I[αMeL]LD[Orn]K([AEEA-γGlu-C18 diacid])AQ[αMe4Pal]EFI[dE][αMeY]LVEGGPSSGEPPPSGSE-NH2 [Example 752]”, the EC50 in test [1] amounted to 1.74 nM; in test [2], 44 nM; in test [3] it was 1.9 nM; in test [4], 0.274 nM; in test [5], 228 nM; in test [6], 0.00689 nM.
With “H-Y[Aib]QGT[αMePhe(2-F)]TSD[4Pal][αMeS]I[αMeL]LD[Orn]K([AEEA-γGlu-C18 diacid])AQ[αMe4Pal]EFI[dE][αMeY]LVEGGPSSGEPPPSGSEE-NH2 [Example 736]”, the EC50 in test [1] worked out at 1.23 nM; in test [2], 46.3 nM; in test [3], 2.85 nM; in test [4], 0.489 nM; in test [5], 245 nM; in test [6] it was 0.014 nM.
In the case of “H-Y[Aib]QGT[αMePhe(2-F)]TSD[4Pal][αMeS]I[αMeL]LD[Orn]K([AEEA-γGlu-C18 diacid])AQ[αMe4Pal]EFI[dE][αMeY]LVEGGPSSGEPPPSGTGE-NH2 [Example 734]”, the EC50 worked out at 1.3 nM in test [1]; 38.1 nM in test [2]; 2.08 nM in test [3]; 0.417 nM in test [4]; 230 nM in test [5]; 0.0132 nM in test [6].
As for “H-Y[Aib]QGT[αMePhe(2-F)]TSD[4Pal][αMeS]I[αMeL]LD[Orn]K([AEEA-γGlu-C18 diacid])AQ[αMe4Pal]EFI[dE][αMeY]LVEGGPSSGEPPPTGE-NH2 [Example 1153]”, the EC50 in test [1] turned out to be 1.39 nM; in test [2] it was 52.7 nM; in test [3] (setting [7]), 2.69 nM; in test [4] (setting [7]), 0.33 nM; in test [5], 215 nM; in test [6] (setting [7]), 0.0109 nM.
For “H-Y[Aib]QGT[αMePhe(2-F)]TSD[4Pal][αMeS]I[αMeL]LD[Orn]K([AEEA-γGlu-γGlu-C18 diacid])AQ[Aib][Orn]FIEYLIEAGPSSGEPPPEEG-NH2 [Example 485]”, the EC50 in test [1] amounted to 0.869 nM; in test [2], 11.8 nM; in test [3] it was 4.29 nM; in test [4] it was 0.277 nM; in test [5] it was 298 nM; in test [6], 0.0194 nM.
With “H-Y[Aib]QGT[αMePhe(2-F)]TSD[4Pal][αMeS]I[αMeL]LD[Orn]K([AEEA-γGlu-γGlu-C18 diacid])AQ[αMe4Pal]EFI[dE][αMeY]LIEGGPSSGAPPPSGE-NH2 [Example 1176]”, the EC50 in test [1] is 0.462 nM; in test [2], 43.8 nM; in test [3] (setting [7]) it was 1.8 nM; in test [4] (setting [7]), 0.344 nM; in test [5], 229 nM; in test [6] (setting [7]) it was 0.00717 nM.
Take “H-Y[Aib]QGT[αMePhe(2-F)]TSD[4Pal][αMeS]I[αMeL]LD[Orn]K([AEEA-γGlu-γGlu-C18 diacid])AQ[αMe4Pal]EFI[dE][αMeY]LIEGGPSSGAPPPSGGGE-NH2 [Example 1180]”: the EC50 was 0.341 nM in test [1]; 35.6 nM in test [2]; 3.16 nM in test [3] (setting [7]); 0.445 nM in test [4] (setting [7]); 205 nM in test [5]; 0.00602 nM in test [6] (setting [7]).
Turning to “H-Y[Aib]QGT[αMePhe(2-F)]TSD[4Pal][αMeS]I[αMeL]LD[Orn]K([AEEA-γGlu-γGlu-C18 diacid])AQ[αMe4Pal]EFI[dE][αMeY]LIEGGPSSGAPPPSGSE-NH2 [Example 1178]”, the EC50 in test [1] turned out to be 0.544 nM; in test [2], 39 nM; in test [3] (setting [7]) it was 3.08 nM; in test [4] (setting [7]), 0.437 nM; in test [5] it was 270 nM; in test [6] (setting [7]), 0.00913 nM.
Consider “H-Y[Aib]QGT[αMePhe(2-F)]TSD[4Pal][αMeS]I[αMeL]LD[Orn]K([AEEA-γGlu-γGlu-C18 diacid])AQ[αMe4Pal]EFI[dE][αMeY]LIEGGPSSGEPPPSGE-NH2 [Example 1177]”, for which the EC50 was found to be 0.544 nM in test [1]; 43.6 nM in test [2]; 4.23 nM in test [3] (setting [7]); 0.681 nM in test [4] (setting [7]); 156 nM in test [5]; 0.0114 nM in test [6] (setting [7]).
For the substance “H-Y[Aib]QGT[αMePhe(2-F)]TSD[4Pal][αMeS]I[αMeL]LD[Orn]K([AEEA-γGlu-γGlu-C18 diacid])AQ[αMe4Pal]EFI[dE][αMeY]LIEGGPSSGEPPPSGGGE-NH2 [Example 1181]”, the EC50 in test [1] was found to be 0.666 nM; in test [2], 48.2 nM; in test [3] (setting [7]), 3.34 nM; in test [4] (setting [7]), 0.664 nM; in test [5], 203 nM; in test [6] (setting [7]), 0.0115 nM.
“H-Y[Aib]QGT[αMePhe(2-F)]TSD[4Pal][αMeS]I[αMeL]LD[Orn]K([AEEA-γGlu-γGlu-C18 diacid])AQ[αMe4Pal]EFI[dE][αMeY]LIEGGPSSGEPPPSGSE-NH2 [Example 1179]”: the EC50 is 0.58 nM in test [1]; 37.9 nM in test [2]; 2.87 nM in test [3] (setting [7]); 0.652 nM in test [4] (setting [7]); 197 nM in test [5]; 0.0102 nM in test [6] (setting [7]).

The values above are taken from patent publication US20240270821A1, “GIP/GLP1/GCG TRI-RECEPTOR AGONISTS AND USES THEREOF” (priority 2023, published 2024).
